Measured values taken from BindingDB's records for doi:10.7270/Q2PC30Z9 (Burnham Center For Chemical Genomics, 2012).

Target: 26S proteasome non-ATPase regulatory subunit 14 (Homo sapiens, UniProt O00487)
Assay: inhibition of proteasome subunit RPN11 – biochemical, fluorescence polarization, uHTS hits, confirmation (AID 602368)

26S proteasome non-ATPase regulatory subunit 14, sequence (O00487 whole entry): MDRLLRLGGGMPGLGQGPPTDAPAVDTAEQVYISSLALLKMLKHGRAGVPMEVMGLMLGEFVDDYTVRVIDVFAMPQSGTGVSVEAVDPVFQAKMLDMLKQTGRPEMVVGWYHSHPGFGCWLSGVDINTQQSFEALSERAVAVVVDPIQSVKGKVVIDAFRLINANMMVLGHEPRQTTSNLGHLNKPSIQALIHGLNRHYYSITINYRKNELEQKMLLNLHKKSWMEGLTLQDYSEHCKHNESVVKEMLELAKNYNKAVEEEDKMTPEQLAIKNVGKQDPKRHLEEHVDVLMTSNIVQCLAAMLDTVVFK

O=c1c(Cl)c(N=NCc2ccc(Br)cc2)cnn1-c1ccccc1
IC50: 21.2 µM

O=C(N/N=C/C1C=C(Cl)C=C([N+](=O)[O-])C1=O)c1ccccc1NS(=O)(=O)c1cccs1 (stereo not given) [SMR000364876]
IC50: 10.4 µM

COc1cc(C=CC(=O)C2C(=O)NC(=O)N(CCc3ccccc3)C2=O)ccc1O (stereo not given) [SMR000221203]
IC50: 29.2 µM

O=[N+]([O-])c1ccc(N=NCc2cccn2-c2ccccc2)nc1 [SMR000161089]
IC50: 23.5 µM

CCN(CC)CCOC(=O)c1ccc(N=CC(C#N)c2nc(-c3ccc4c(c3)OCO4)cs2)cc1 (stereo not given) [2-(diethylamino)ethyl 4-[[(Z)-2-[4-(1,3-benzodioxol-5-yl)-1,3-thiazol-2-yl]-2-cyano-ethenyl]amino]benzoate]
IC50: 31.4 µM

COc1cc(C=c2[nH]c3n(c2=O)CCCCC=3)ccc1O [SMR000149996]
IC50: 14.8 µM

CCOC(=O)C1C(=O)C(=Cc2ccc(-c3ccccc3C(=O)O)o2)SC1=Nc1ccc(OC)cc1 (stereo not given)
IC50: 17.8 µM

Cc1[nH]c2ccccc2c1/C=C1\N=C(c2ccccc2)OC1=O [(4Z)-4-[(2-methyl-1H-indol-3-yl)methylidene]-2-phenyl-5-oxazolone]
IC50: 4.18 µM

O=C1c2ccccc2SC1/C=N/c1cc([N+](=O)[O-])ccc1O (stereo not given) [(2Z)-2-[[(5-nitro-2-oxidanyl-phenyl)amino]methylidene]-1-benzothiophen-3-one]
IC50: 3.28 µM

Oc1csc(=S)n1N=Cc1ccc(Cl)s1 [3-[(5-chlorothiophen-2-yl)methylideneamino]-2-sulfanylidene-1,3-thiazolidin-4-one]
IC50: 59.4 µM

CSc1nsc(CC=Nc2ccc(C(=O)O)cc2)c1C#N [4-({2-[4-cyano-3-(methylsulfanyl)-5-isothiazolyl]vinyl}amino)benzenecarboxylic acid]
IC50: 24.8 µM

CN(CCO)c1ccc(CN=Nc2ccc([N+](=O)[O-])cc2S(=O)(=O)Nc2ccccc2C(=O)O)cc1
IC50: 37 µM

CC(c1sc(S)nc1O)c1sc(S)nc1O [5-[1-(4-oxidanylidene-2-sulfanylidene-1,3-thiazolidin-5-yl)ethyl]-2-sulfanylidene-1,3-thiazolidin-4-one]
IC50: 45.4 µM

COC1=CC([N+](=O)[O-])=CC(/C=N/NC(=O)c2cncc(Br)c2)C1=O (stereo not given) [5-bromo-N'-[(E)-(5-methoxy-3-nitro-6-oxo-1-cyclohexa-2,4-dienylidene)methyl]-3-pyridinecarbohydrazide]
IC50: 49.5 µM

Cc1cc(=O)[nH]c(N=NCc2c(O)n(-c3ccccc3)c(=O)c3ccccc23)n1 [SMR000221270]
IC50: 18.4 µM

C=C(C=C(C)c1sc(S)nc1O)c1sc(S)nc1O [MLS000723803]
IC50: 43.6 µM

O=[N+]([O-])c1ccc(N=NCc2ccc[nH]2)cc1 [MLS000595102]
IC50: 8.96 µM

C=c1[nH]c2ccc(C)cc2c1=Cc1c(N)n2oc(C)cc2nc1=O [MLS000730959]
IC50: 33.3 µM

COC1=CC([N+](=O)[O-])=CC(/C=N/NC(=O)c2cc(-c3ccccc3)nc3ccccc23)C1=O (stereo not given)
IC50: 22.3 µM

C=CCN1C(=O)C(/C=N/c2cccc([N+](=O)[O-])c2)C(=O)N(CCCC)C1=O (stereo not given) [MLS000543529]
IC50: 34 µM

CC[n+]1c(CC=Nc2ccccc2)oc2ccc(OC)cc21
IC50: 23.2 µM

NS(=O)(=O)c1ccc(N=CCC(=O)c2ccc3ccccc3c2)cc1 [4-(3-Naphthalen-2-yl-3-oxo-propenylamino)-benzenesulfonamide]
IC50: 28.6 µM

O=[N+]([O-])c1ccc(N=NCc2c[nH]c3ccccc23)cc1 [MLS000573812]
IC50: 1.77 µM

Cc1[nH]n(-c2ccccc2)c(=O)c1C=C1NC(=S)NC1=O [5-methyl-4-[(Z)-(5-oxo-2-sulfanylideneimidazolidin-4-ylidene)methyl]-2-phenyl-4H-pyrazol-3-one]
IC50: 32.4 µM

CC1(C)CC(=O)C(=CNCC2CCN(C(=O)Cc3ccccc3)CC2)C(=O)C1 [5,5-dimethyl-2-[[[1-(2-phenylacetyl)piperidin-4-yl]methylamino]methylidene]cyclohexane-1,3-dione]
IC50: > 100 µM

COC1=CC(=Cc2c(C)[nH]n(-c3cccc(Br)c3)c2=O)C=C(OC)C1=O
IC50: 23.1 µM

CCCCCCCCCCCC1N=C(N)N=C(CCCO)C1C(=O)OC (stereo not given) [SMR001565729]
IC50: 19.9 µM

CCN(CC)CCOC(=O)c1ccc(N=CC(C#N)c2nc(-c3ccc(OC)c(OC)c3)cs2)cc1 (stereo not given) [SMR000434079]
IC50: 23.2 µM

CC1=NC(=O)NC(c2ccc(N3CCOCC3)cc2)C1C(=O)c1ccccc1 (stereo not given) [5-benzoyl-6-methyl-4-[4-(4-morpholinyl)phenyl]-3,4-dihydro-1H-pyrimidin-2-one]
IC50: 17.1 µM

O=C1C=CC([N+](=O)[O-])=CC1C=NN=C1NS(=O)(=O)c2ccccc21 (stereo not given)
IC50: 34.9 µM

CC(=O)C1C(=O)OC(=CC=Cc2ccccc2)C1=O (stereo not given) [3-acetyl-5-cinnamylidene-4-hydroxy-2-furanone]
IC50: 35.2 µM

C=c1[nH]n(-c2nnc(C)c(=O)[nH]2)c(=O)c1=Cc1ccc(N(CC)CC)cc1 [3-{4-[1-(4-Diethylamino-phenyl)-meth-(Z)-ylidene]-3-methyl-5-oxo-4,5-dihydro-pyrazol-1-yl}-6-methyl-4H -[1,2,4]triazin-5-one]
IC50: 49.4 µM

O=C1N=C(Nc2ccc(Cl)cc2Cl)SC1=Cc1c[nH]c2ccccc12
IC50: 36.5 µM

O=C(N/N=C/C1C=C([N+](=O)[O-])C=CC1=O)c1cc(-c2ccccc2)nc2ccccc12 (stereo not given) [N'-[(E)-(3-nitro-6-oxo-1-cyclohexa-2,4-dienylidene)methyl]-2-phenyl-4-quinolinecarbohydrazide]
IC50: 14.8 µM

COc1cc2c3c(c1)C(C)=CC(C)(C)N3C(=O)C2=O [MLS000688351]
IC50: 8.23 µM
